Biological target: T1, human recombinant GPR65 (Homo sapiens, UniProt Q8IYL9)
T1 construct: host or cells: 1321N1 human astrocytoma cells (1321N1-hrGPR65)
Assay: Human GPR65 cAMP HTRF antagonist assay
Format: cell-based
Settings: not given
How it was run: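 1321N1 astrocytoma cells stably expressing GPR65 were preincubated with compound for 30 min at room temperature in KRH pH 7.6 with 1 mM IBMX and 200 μM EDTA. They were then stimulated at assay pH 7.2 for 30 min, with controls at pH 7.9. cAMP was read by HTRF (665/620 nm), normalised to controls and fitted by 4-parameter logistic to give IC50.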

T1 sequence (Q8IYL9 whole entry): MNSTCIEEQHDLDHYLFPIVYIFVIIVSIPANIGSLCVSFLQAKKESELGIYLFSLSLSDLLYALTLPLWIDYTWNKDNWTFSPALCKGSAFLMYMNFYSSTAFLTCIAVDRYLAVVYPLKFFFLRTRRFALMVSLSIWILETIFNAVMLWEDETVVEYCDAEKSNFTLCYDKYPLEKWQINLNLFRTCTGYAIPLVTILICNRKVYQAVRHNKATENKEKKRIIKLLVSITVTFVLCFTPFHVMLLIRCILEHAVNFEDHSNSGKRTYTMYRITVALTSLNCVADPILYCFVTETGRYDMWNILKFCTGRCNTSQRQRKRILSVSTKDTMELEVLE

Compound | IC50 [nM]
O=C(Nc1ccc(Cl)c(C(F)(F)F)c1)N1[C@H]2CC[C@@H]1c1cncnc1C2 [Compound 42, (5R,8S)-N-(4-Chloro-3-(trifluoromethyl)phenyl)-6,7,8,9-tetrahydro-5H-5,8-epiminocyclohepta[d]pyrimidine-10-carboxamide] | < 500
O=C(Nc1ccc(C(F)(F)F)c(Cl)c1)N1[C@H]2CC[C@@H]1c1c[nH]c(=O)nc1C2 [Compound 43, (5R,8S)-N-(3-Chloro-4-(trifluoromethyl)phenyl)-2-oxo-3,5,6,7,8,9-hexahydro-2H-5,8-epiminocyclohepta[d]pyrimidine-10-carboxamide] | < 500
O=C(Nc1ccc(Cl)c(Cl)c1)N1[C@H]2CC[C@@H]1c1cncnc1C2 [Compound 52, (5R,8S)-N-(3,4-Dichlorophenyl)-6,7,8,9-tetrahydro-5H-5,8-epiminocyclohepta[d]pyrimidine-10-carboxamide] | < 500
O=C(Nc1ccc(Cl)c(Cl)c1)N1[C@H]2CC[C@@H]1c1ccnc(F)c1C2 [Compound 78, (5R,8S)-N-(3,4-Dichlorophenyl)-1-fluoro-6,7,8,9-tetrahydro-5H-5,8-epiminocyclohepta[c]pyridine-10-carboxamide] | < 500
O=C(Nc1cc(Cl)c(Cl)cc1F)N1[C@H]2CC[C@@H]1c1ccnc(F)c1C2 [Compound 79, (5R,8S)-N-(4,5-Dichlroo-2-fluorophenyl)-1-fluoro-6,7,8,9-tetrahydro-5H-5,8-epiminocyclohepta[c]pyridine-10-carboxamide] | < 500
O=C(Nc1ccc(C(F)(F)F)c(Cl)c1)N1[C@H]2CC[C@@H]1c1ccnc(F)c1C2 [Compound 85, (5R,8S)-N-(3-Chloro-4-(trifluoromethyl)phenyl)-1-fluoro-6,7,8,9-tetrahydro-5H-5,8-epiminocyclohepta[c]pyridine-10-carboxamide] | < 500
N#Cc1cc(Cl)c(Cl)cc1NC(=O)N1[C@H]2CC[C@@H]1c1c[nH]c(=O)cc1C2 [Compound 88, (6S,9R)-N-(4,5-Dichloro-2-cyanophenyl)-3-oxo-3,5,6,7,8,9-hexahydro-2H-6,9-epiminocyclohepta[c]pyridine-10-carboxamide] | < 500
O=C(Nc1ccc(Cl)c(Cl)c1)N1[C@H]2CC[C@@H]1c1cnc(F)cc1C2 [Compound 91, (6S,9R)-N-(3,4-Dichlorophenyl)-3-fluoro-6,7,8,9-tetrahydro-5H-6.9-epiminocyclohepta[c]pyridine-10-carboxamide] | < 500
O=C(Nc1ccc(Cl)c(Cl)c1)N1[C@H]2CC[C@@H]1c1cc[n+]([O-])cc1C2 [Compound 92] | < 500
O=C(Nc1cc(Cl)c(C(F)(F)F)cc1F)N1[C@H]2CC[C@@H]1c1c[nH]c(=O)cc1C2 [Compound 93, (6S,9R)-N-(5-Chloro-2-fluoro-4-(trifluoromethyl)phenyl)-3-oxo-3,5,6,7,8,9-hexahydro-2H-6,9-epiminocyclohepta[c]pyridine-10-carboxamide] | < 500
O=C(Nc1cc(Cl)c(Cl)cc1F)N1[C@H]2CC[C@@H]1c1c[nH]c(=O)cc1C2 [Compound 94, (6S,9R)-N-(4,5-Dichloro-2-fluorophenyl)-3-oxo-3,5,6,7,8,9-hexahydro-2H-6,9-epiminocyclohepta[c]pyridine-10-carboxamide] | < 500
N#Cc1cc(Cl)c(Cl)cc1NC(=O)N1[C@H]2CC[C@@H]1c1ccnc(F)c1C2 [Compound 98, (5R,8S)-N-(4,5-Dichloro-2-cyanophenyl)-1-fluoro-6,7,8,9-tetrahydro-5H-5,8-epiminocyclohepta[c]pyridine-10-carboxamide] | < 500
O=C(Nc1cc(Cl)c(C(F)(F)F)cc1F)N1[C@H]2CC[C@@H]1c1ccnc(F)c1C2 [Compound 101, (5R,8S)-N-(5-Chloro-2-fluoro-4-(trifluoromethyl)phenyl)-1-fluoro-6,7,8,9-tetrahydro-5H-5.8-epiminocyclohepta[c]pyridine-10-carboxamide] | < 500
O=C(Nc1ccc(Cl)c(Cl)c1)N1[C@H]2CC[C@@H]1c1c[nH]c(=O)cc1C2 [Compound 103, (6S,9R)-N-(3,4-Dichlorophenyl)-3-oxo-3,5,6,7,8,9-hexahydro-2H-6,9-epiminocyclohepta[c]pyridine-10-carboxamide] | < 500
O=C(Nc1ccc(Cl)c(Cl)c1)N1[C@H]2CC[C@@H]1c1c[nH]c(=O)nc1C2 [Compound 106, (5R,8S)-N-(3,4-Dichlorophenyl)-2-oxo-3,5,6,7,8,9-hexahydro-2H-5,8-epiminocyclohepta[d]pyrimidine-10-carboxamide] | < 500
O=C(Nc1ccc(Cl)c(Cl)c1)N1[C@H]2CC[C@@H]1c1ccncc1C2 [Compound 108, (5R,8S)-N-(3,4-Dichlorophenyl)-6,7,8,9-tetrahydro-5H-5,8-epiminocyclohepta[c]pyridine-10-carboxamide] | < 500
Cc1cc(Cl)c(Cl)cc1NC(=O)N1[C@H]2CC[C@@H]1c1ccnc(F)c1C2 [Compound 117, (5R,8S)-N-(4,5-Dichloro-2-methylphenyl)-1-fluoro-6,7,8,9-tetrahydro-5H-5,8-epiminocyclohepta[c]pyridine-10-carboxamide] | < 500
O=C(Nc1cc(C(F)(F)F)ccc1F)N1[C@H]2CC[C@@H]1c1ccnc(F)c1C2 [Compound 119, (5R,8S)-1-Fluoro-N-(2-fluoro-5-(trifluoromethyl)phenyl)-6,7,8,9-tetrahydro-5H-5,8-epiminocyclohepta[c]pyridine-10-carboxamide] | < 500
O=C(Nc1ccc(C(F)(F)F)cc1F)N1[C@H]2CC[C@@H]1c1ccnc(F)c1C2 [Compound 120, (5R,8S)-1-Fluoro-N-(2-fluoro-4-(trifluoromethyl)phenyl)-6,7,8,9-tetrahydro-5H-5,8-epiminocyclohepta[c]pyridine-10-carboxamide] | < 500
COC(=O)c1ccc(NC(=O)N2[C@H]3CC[C@@H]2c2ccnc(F)c2C3)cc1Cl [Compound 122, Methyl 2-chloro-4-((5R,8S)-1-fluoro-6,7,8,9-tetrahydro-5H-5,8-epiminocyclohepta[c]pyridine-10-carboxamido)benzoate] | < 500
COC(=O)c1cc(NC(=O)N2[C@H]3CC[C@@H]2c2ccnc(F)c2C3)ccc1Cl [Compound 123, Methyl 2-chloro-5-((5R,8S)-1-fluoro-6,7,8,9-tetrahydro-5H-5,8-epiminocyclohepta[c]pyridine-10-carboxamido)benzoate] | < 500
O=C(Nc1ccc(OC(F)(F)F)c(Cl)c1)N1[C@H]2CC[C@@H]1c1ccnc(F)c1C2 [Compound 124, (5R,8S)-N-(3-Chloro-4-(trifluoromethoxy)phenyl)-1-fluoro-6,7,8,9-tetrahydro-5H-5,8-epiminocyclohepta[c]pyridine-10-carboxamide] | < 500
COC(=O)c1cc(NC(=O)N2[C@H]3CC[C@@H]2c2ccnc(F)c2C3)c(F)cc1Cl [Compound 125, Methyl 2-chloro-4-fluoro-5-((5R,8S)-1-fluoro-6,7,8,9-tetrahydro-5H-5,8-epiminocyclohepta[c]pyridine-10-carboxamido)benzoate] | < 500

Same assay, conditions: 1321N1-hrGPR65 cells, assay pH 7.2, cAMP HTRF; read-out: hGPR65 IC50 (activity class)

Compound | IC50 [nM]
O=C(Nc1ccc(C(F)(F)F)c(Cl)c1)N1[C@@H]2CC[C@H]1c1c[nH]c(=O)nc1C2 [Compound 44, (5S,8R)-N-(3-Chloro-4-(trifluoromethyl)phenyl)-2-oxo-3,5,6,7,8,9-hexahydro-2H-5,8-epiminocyclohepta[d]pyrimidine-10-carboxamide] | > 5000
O=C(Nc1ccc(Cl)c(Cl)c1)N1[C@@H]2CC[C@H]1c1cncnc1C2 [Compound 53, (5S,8R)-N-(3,4-Dichlorophenyl)-6,7,8,9-tetrahydro-5H-5,8-epiminocyclohepta[d]pyrimidine-10-carboxamide] | > 5000
COc1cc2c(cn1)[C@H]1CC[C@@H](C2)N1C(=O)Nc1ccc(Cl)c(Cl)c1 [Compound 86, (6S,9R)-N-(3,4-Dichlorophenyl)-3-methoxy-6,7,8,9-tetrahydro-5H-6,9-epiminocyclohepta[c]pyridine-10-carboxamide] | > 5000
O=C(Nc1ccc(Cl)c(Cl)c1)N1[C@@H]2CC[C@H]1c1c[nH]c(=O)nc1C2 [Compound 105, (5S,8R)-N-(3,4-Dichlorophenyl)-2-oxo-3,5,6,7,8,9-hexahydro-2H-5,8-epiminocyclohepta[d]pyrimidine-10-carboxamide] | > 5000
O=C(Nc1ccc(Cl)c(Cl)c1)N1[C@@H]2CC[C@H]1c1ccncc1C2 [Compound 107, (5S,8R)-N-(3,4-Dichlorophenyl)-6,7,8,9-tetrahydro-5H-5,8-epiminocyclohepta[c]pyridine-10-carboxamide] | > 5000
O=C(Nc1ccc(Cl)c(Cl)c1)N1[C@@H]2CC[C@H]1c1ccnc(F)c1C2 [Compound 110, (5S,8R)-N-(3,4-Dichlorophenyl)-1-fluoro-6,7,8,9-tetrahydro-5H-5,8-epiminocyclohepta[c]pyridine-10-carboxamide] | > 5000
O=C(Nc1ccc(Cl)c(Cl)c1)N1[C@H]2CC[C@@H]1c1cnccc1C2 [Compound 111, (6S,9R)-N-(3,4-Dichlorophenyl)-6,7,8,9-tetrahydro-5H-6,9-epiminocycloheptan[c]pyridine-10-carboxamide] | 500 to 5000
O=C(Nc1ccc(Cl)c(Cl)c1)N1[C@@H]2CC[C@H]1c1cnccc1C2 [Compound 112, (6R,9S)-N-(3,4-Dichlorophenyl)-6,7,8,9-tetrahydro-5H-6,9-epiminocyclohepta[c]pyridine-10-carboxamide] | > 5000
O=C(Nc1ccc(Cl)c(Cl)c1)N1[C@@H]2CC[C@H]1[C@H](F)c1ncncc12 [Compound 115, (5R,8S,9S)-N-(3,4-Dichlorophenyl)-9-fluoro-6,7,8,9-tetrahydro-5H-5,8-epiminocyclohepta[d]pyrimidine-10-carboxamide] | 500 to 5000
COc1cc(Cl)c(Cl)cc1NC(=O)N1[C@H]2CC[C@@H]1c1ccnc(F)c1C2 [Compound 118, (5R,8S)—N-(4,5-dichloro-2-methoxyphenyl)-1-fluoro-6,7,8,9-tetrahydro-5H-5,8-epiminocyclohepta[c]pyridine-10-carboxamide] | 500 to 5000

— patent US20230373989A1, “N-PHENYLAMINOCARBONYL PYRIDINO-, PYRIMIDINO AND BENZO-TROPANES AS MODULATORS OF GPR65” (PATHIOS THERAPEUTICS LIMITED, priority 2020, published 2023)
